# Source: patent EP0224596A1, “Use of dibenzocyclooctadiene lignans extracted from Schisandrae Fructus for the manufacture of a medicament for the treatment of hepatic failure” (priority 1985, dated 1986)
# Columns and labels:
# [1] = tested on: mice with acute hepatic failure; test: Effect on survival ratio of mice with acute hepatic failure (heat-killed P. acnes + LPS); format: in vivo, male balb/c strain mice; conditions: survival twenty-four hours after injection of LPS, control 7.5
# Protocol: Seven groups of male balb/c strain mice (six weeks of age) were used. Each group included 40 mice. Acute hepatic failure was induced by the injection of 1 µg/mouse of LPS (lipopolysaccharide, Difco Laboratories) to mice that had been injected with 1 mg/mouse of heat-killed P. acnes (Propionibacterium acnes, First Department of Biochemistry in Osaka City Univ. Medical School) seven days before. The above obtained compounds (deoxyschizandrin, gomisin N, schizandrin, gomisin A, q-schizandrin and wuweizisu C) which had been suspended in 0.5% CMC (carboxymethyl cellulose, Wako Junyaku Kogyo, Co. Ltd.), was given p.o. to each group eight hours after the injection of LPS. Only vehicle (CMC) was given p.o. to one remaining group as a control group.
# Survival ratio of mice was periodically examined twenty-four hours after induction of acute hepatic failure. Each dose of the above compounds and corresponding survival ratio twenty-four hours after the injection of LPS are shown in Table 1.
# [2] = Acute toxicity LD50, p.o.; conditions: mouse, in vivo, po; p.o. in ddY mice
# Source text: And estimated clinical daily doses of the present therapeutic drugs for patients with hepatic failure are also given in Table 2.
# [3] = tested on: rats with acute hepatic failure; test: Survival ratio and serum GOT in acute hepatic failure induced by P. acnes + LPS; format: in vivo, male Wistar rats; conditions: for survival ratio: LPS on day seven, control 8.8%
# Protocol: Three groups of male Wistar rats were used. Each group included 45 rats. Each rat in all groups was injected with 10 mg/rat of P. acnes. Four days after, gomisin A (100mg/kg, […]) obtained in Production Example 3 were suspended in 2% Tween 80/saline and administered i.p. to respectively two of three groups. Only vehicle (2% Tween 80/saline) was administered i.p. to one remaining group as a control group. All rats were injected with 50µg/rat of LPS, seven days after the injection of P. acnes. Twenty-four hours after the injection of LPS, blood samples were collected from surviving rats by heart puncture, and serum GOT activities were measured. GOT is one of amino acid transferases contained in liver cells. High serum GOT activities reflect large number of destroyed liver cells.
# [4] = dose 50 mg/kg p.o. in 0.5% CMC eight hours after LPS
# [5] = dose 20 mg/kg p.o. in 0.5% CMC eight hours after LPS
Structure (SMILES),"Survival Ratio (%) [1, 4]",LD50 [2],"Survival Ratio (%) [1, 5]",other results
"COc1cc2c(c(OC)c1OC)-c1c(cc(OC)c(OC)c1OC)C[C@H](C)[C@H](C)C2 [Deoxyschizandrin, deoxyschizandrin]",55%,2000 mg/kg,,
"COc1cc2c(c(OC)c1OC)-c1c(cc3c(c1OC)OCO3)CC(C)C(C)C2 (centres unmarked) [Gomisin N, gomisin N]",,2000 mg/kg,80%,
"COc1cc2c(c(OC)c1OC)-c1c(cc(OC)c(OC)c1OC)C[C@](C)(O)[C@@H](C)C2 [Schizandrin, schizandrin]",50%,1450 mg/kg,,
COc1c2c(cc3c1-c1c(cc4c(c1OC)OCO4)CC(C)C(C)C3)OCO2 (centres unmarked) [Wuweizisu C],,2000 mg/kg,70%,
"COc1cc2c(c(OC)c1OC)-c1c(cc3c(c1OC)OCO3)CC(C)C(C)(O)C2 (centres unmarked) [Gomisin A, gomisin A]",,777 mg/kg,,"survival ratio ([3]; 50mg/kg i.p. in 2% Tween 80/saline four days after P. acnes): 83.3%; survival ratio ([3]; 100mg/kg i.p. in 2% Tween 80/saline four days after P. acnes): 100%; average serum GOT activities ([3]; 100mg/kg i.p., surviving rats, twenty-four hours after injection of LPS, control 7000 IU): 140 IU; Survival Ratio (%) ([1]; dose 10 mg/kg p.o. in 0.5% CMC eight hours after LPS): 80%"
"COc1cc2c(c(OC)c1OC)-c1c(cc3c(c1OC)OCO3)CC(C)C(C)C2 (centres unmarked) [γ-Schizandrin, γ-schizandrin]",60%,,,
